In assay [1] the target is T1, CamA (Clostridioides difficile, UniProt Q183J3).
T1 sequence (Q183J3 1-577): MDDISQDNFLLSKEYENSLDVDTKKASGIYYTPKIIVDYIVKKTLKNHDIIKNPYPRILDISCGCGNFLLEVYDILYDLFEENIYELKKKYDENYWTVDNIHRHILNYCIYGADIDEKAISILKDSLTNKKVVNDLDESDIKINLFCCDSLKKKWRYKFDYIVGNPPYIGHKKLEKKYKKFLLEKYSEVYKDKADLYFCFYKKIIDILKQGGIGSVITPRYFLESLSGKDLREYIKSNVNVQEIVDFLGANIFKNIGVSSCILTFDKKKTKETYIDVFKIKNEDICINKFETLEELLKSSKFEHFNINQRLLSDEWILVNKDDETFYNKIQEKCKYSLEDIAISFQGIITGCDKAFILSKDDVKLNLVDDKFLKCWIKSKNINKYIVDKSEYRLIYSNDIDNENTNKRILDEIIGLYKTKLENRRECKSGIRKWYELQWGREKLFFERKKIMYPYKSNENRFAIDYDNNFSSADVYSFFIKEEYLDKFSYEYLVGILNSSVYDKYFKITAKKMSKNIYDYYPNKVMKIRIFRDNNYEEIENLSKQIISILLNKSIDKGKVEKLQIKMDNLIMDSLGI
It counts as biochemical.

Assay [2] addresses T1, CamA. In words: Isothermal titration calorimetry. The assay is classed as binding. (In ITC the heat of successive injections is recorded.)
The target of a further assay is CcrM (Caulobacter vibrioides, UniProt P0CAW2). It counts as biochemical, Caulobacter crescentus.
The target in a further assay is T2, Dam (Escherichia coli, UniProt P0AEE8).
T2 sequence (P0AEE8 1-278): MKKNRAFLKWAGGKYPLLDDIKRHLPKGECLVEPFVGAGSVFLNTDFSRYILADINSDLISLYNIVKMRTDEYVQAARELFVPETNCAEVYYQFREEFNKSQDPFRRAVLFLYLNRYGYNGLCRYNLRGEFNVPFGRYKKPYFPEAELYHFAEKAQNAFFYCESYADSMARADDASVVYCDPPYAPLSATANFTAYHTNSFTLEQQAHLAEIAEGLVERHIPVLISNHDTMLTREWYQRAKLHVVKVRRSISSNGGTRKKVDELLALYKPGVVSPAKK
The assay is classed as biochemical.

The target in a further assay is DNMT1 (Homo sapiens, UniProt P26358). In words: Selectivity assay, DNMT1. It counts as biochemical. To be noted: [I] = 10 μM, [SAM] = 5.5 μM, 37 °C.
The target in another assay is Dnmt3a-Dnmt3L (Mus musculus, UniProt O88508). The assay is classed as biochemical.
The next assay deals with PCIF1 (Homo sapiens, UniProt Q9H4Z3). The assay is classed as biochemical.
Another assay addresses MettL5-Trm112 (Homo sapiens, UniProt Q9NRN9). The assay is classed as biochemical.
For the next assay, the target named is T3, MettL16 (Homo sapiens, UniProt Q86W50).
T3 sequence (Q86W50 1-562): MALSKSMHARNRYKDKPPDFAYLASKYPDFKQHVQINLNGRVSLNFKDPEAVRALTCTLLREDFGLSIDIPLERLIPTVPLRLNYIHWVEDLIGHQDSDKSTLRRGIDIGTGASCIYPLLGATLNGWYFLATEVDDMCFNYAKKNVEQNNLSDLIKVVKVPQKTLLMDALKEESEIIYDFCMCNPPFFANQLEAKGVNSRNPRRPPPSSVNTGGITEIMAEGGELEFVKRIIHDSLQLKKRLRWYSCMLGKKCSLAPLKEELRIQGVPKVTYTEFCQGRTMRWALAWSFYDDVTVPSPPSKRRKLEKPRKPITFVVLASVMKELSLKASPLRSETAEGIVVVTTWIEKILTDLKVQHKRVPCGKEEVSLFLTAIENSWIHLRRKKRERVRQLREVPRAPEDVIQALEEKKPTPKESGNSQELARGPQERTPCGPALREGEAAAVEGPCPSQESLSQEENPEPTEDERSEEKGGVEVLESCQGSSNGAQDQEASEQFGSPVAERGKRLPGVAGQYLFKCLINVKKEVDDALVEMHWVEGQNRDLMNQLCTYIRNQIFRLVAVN
In words: Selectivity assay, MettL16. It counts as biochemical. As to conditions: [I] = 10 μM, [SAM] = 160 μM or 30 μM.

A further assay deals with MettL3-MettL14 (Homo sapiens, UniProt Q86U44). Description: Selectivity assay, MettL3-MettL14. To be noted: [I] = 10 μM, [SAM] = 20 μM, 5 mM NaCl, or CamA conditions. It counts as biochemical.
In another assay the target is DOT1L (Homo sapiens, UniProt Q8TEK3). Description: Selectivity assay, DOT1L. The assay is classed as biochemical. To be noted: compound 10 μM, 3H-SAM 1 μM.
The target in the next assay is EZH2 complex (Homo sapiens, UniProt Q15910). In words: Selectivity assay, EZH2 complex. It counts as biochemical. To be noted: compound 10 μM, 3H-SAM 1 μM.
A further assay has as its target PRMT1 (Homo sapiens, UniProt Q99873). Description: Selectivity assay, PRMT1. The assay is classed as biochemical. As to conditions: compound 10 μM, 3H-SAM 1 μM.

Sequence of DOT1L (Q8TEK3 whole entry): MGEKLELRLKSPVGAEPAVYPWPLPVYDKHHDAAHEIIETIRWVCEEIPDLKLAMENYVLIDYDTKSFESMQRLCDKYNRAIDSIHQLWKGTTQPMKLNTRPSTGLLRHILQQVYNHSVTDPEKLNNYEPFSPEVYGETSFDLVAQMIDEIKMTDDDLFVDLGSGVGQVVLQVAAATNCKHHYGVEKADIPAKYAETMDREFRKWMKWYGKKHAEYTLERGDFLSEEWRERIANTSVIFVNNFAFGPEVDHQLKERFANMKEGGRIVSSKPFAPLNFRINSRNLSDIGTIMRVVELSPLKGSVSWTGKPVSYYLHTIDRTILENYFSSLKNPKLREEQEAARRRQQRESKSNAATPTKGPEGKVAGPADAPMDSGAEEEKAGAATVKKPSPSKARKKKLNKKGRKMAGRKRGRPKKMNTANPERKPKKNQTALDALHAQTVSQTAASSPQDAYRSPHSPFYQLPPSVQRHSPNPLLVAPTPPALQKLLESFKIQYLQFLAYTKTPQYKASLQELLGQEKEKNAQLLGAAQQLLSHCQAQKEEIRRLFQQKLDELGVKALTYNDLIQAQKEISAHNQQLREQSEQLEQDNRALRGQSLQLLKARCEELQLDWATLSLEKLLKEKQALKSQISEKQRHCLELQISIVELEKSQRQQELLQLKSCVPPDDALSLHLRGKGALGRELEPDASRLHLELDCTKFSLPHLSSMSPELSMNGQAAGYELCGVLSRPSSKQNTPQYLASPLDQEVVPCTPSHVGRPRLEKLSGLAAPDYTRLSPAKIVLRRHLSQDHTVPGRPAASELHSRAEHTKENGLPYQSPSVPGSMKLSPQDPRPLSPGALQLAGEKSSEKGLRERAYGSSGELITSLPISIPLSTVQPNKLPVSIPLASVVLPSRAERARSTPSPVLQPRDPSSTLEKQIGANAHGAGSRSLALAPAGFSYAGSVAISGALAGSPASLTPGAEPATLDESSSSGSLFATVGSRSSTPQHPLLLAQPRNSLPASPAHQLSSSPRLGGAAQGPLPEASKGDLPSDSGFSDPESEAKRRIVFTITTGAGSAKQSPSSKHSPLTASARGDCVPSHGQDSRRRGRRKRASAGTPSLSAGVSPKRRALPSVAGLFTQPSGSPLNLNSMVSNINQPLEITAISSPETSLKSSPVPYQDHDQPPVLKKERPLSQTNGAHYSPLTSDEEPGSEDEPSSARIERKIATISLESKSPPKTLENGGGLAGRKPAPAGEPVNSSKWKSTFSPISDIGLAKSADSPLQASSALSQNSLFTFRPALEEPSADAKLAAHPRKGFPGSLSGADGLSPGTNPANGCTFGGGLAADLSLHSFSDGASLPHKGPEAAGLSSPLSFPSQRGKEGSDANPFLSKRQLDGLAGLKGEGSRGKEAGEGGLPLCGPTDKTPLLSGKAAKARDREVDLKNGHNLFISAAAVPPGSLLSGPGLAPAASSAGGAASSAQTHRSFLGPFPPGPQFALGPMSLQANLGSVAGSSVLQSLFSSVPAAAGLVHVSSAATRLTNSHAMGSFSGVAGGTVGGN
Sequence of PRMT1 (Q99873 whole entry): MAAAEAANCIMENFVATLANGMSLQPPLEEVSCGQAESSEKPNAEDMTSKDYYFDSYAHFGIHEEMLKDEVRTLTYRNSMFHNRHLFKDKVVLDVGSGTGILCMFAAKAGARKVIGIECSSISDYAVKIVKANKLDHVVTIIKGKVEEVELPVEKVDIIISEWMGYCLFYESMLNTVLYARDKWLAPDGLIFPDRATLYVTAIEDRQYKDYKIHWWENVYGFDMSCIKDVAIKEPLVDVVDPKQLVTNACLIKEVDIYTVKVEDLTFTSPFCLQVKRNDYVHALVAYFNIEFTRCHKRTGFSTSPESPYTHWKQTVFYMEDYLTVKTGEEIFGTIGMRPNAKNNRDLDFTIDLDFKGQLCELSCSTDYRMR
Sequence of MettL3-MettL14 (Q86U44 whole entry): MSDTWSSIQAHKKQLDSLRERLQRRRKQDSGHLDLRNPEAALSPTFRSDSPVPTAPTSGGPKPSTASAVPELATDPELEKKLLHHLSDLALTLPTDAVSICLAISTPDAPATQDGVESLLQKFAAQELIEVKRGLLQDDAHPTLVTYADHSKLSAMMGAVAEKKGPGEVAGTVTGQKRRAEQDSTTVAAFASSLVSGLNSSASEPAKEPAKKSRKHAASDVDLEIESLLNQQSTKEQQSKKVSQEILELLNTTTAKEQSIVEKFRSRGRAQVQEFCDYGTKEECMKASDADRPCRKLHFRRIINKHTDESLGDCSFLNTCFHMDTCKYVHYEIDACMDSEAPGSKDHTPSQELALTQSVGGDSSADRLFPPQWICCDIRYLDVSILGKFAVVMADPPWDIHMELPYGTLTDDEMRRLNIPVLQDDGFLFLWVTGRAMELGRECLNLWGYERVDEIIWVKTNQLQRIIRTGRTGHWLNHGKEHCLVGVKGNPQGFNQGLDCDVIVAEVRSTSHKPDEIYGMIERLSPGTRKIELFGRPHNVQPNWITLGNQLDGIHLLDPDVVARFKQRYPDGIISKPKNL
Sequence of MettL3-MettL14 (Q9HCE5 whole entry partner): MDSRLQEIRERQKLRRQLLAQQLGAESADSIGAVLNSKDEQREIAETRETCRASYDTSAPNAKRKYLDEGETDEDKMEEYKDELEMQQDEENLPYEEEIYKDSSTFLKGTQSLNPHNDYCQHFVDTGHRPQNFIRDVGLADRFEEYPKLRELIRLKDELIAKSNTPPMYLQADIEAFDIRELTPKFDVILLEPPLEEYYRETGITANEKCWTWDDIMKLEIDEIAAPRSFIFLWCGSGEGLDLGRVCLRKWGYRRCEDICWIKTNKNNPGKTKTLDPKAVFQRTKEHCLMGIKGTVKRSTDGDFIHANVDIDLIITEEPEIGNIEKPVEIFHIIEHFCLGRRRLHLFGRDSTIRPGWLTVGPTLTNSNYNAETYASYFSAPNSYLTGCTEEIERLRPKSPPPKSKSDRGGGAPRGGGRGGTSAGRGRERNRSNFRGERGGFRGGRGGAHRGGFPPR
Sequence of DNMT1 (P26358 351-1600): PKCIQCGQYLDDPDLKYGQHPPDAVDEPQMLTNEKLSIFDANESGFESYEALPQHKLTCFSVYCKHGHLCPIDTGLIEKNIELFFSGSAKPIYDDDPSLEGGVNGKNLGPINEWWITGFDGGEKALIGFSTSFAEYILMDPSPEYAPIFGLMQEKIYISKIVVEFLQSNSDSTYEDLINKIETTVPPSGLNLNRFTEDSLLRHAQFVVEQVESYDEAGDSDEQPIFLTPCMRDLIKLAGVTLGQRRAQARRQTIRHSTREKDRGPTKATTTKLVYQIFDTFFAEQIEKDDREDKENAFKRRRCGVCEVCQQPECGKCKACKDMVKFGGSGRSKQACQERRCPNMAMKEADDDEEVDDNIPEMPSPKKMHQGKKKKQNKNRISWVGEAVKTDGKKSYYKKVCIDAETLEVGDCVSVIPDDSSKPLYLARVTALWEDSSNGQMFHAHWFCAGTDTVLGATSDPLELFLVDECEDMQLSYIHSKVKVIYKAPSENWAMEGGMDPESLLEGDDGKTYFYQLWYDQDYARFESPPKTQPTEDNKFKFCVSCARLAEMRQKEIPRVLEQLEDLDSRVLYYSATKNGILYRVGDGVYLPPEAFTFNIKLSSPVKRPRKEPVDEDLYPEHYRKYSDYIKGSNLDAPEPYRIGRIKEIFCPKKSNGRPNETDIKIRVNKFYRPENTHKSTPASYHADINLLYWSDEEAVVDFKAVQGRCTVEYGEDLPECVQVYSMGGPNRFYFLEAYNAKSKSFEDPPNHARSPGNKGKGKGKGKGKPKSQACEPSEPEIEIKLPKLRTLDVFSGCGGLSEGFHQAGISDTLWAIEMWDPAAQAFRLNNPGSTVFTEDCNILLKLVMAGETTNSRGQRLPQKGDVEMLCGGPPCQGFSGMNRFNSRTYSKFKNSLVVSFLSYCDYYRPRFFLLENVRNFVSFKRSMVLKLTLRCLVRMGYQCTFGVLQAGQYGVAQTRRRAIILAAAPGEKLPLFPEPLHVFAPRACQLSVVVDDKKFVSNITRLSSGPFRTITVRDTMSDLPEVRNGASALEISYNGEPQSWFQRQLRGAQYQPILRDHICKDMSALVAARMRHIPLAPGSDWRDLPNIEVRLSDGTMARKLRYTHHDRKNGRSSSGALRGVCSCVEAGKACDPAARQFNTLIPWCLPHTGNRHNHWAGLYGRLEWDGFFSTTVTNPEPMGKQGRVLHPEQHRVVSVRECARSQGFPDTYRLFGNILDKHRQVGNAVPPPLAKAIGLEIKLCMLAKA
Sequence of PCIF1 (Q9H4Z3 whole entry): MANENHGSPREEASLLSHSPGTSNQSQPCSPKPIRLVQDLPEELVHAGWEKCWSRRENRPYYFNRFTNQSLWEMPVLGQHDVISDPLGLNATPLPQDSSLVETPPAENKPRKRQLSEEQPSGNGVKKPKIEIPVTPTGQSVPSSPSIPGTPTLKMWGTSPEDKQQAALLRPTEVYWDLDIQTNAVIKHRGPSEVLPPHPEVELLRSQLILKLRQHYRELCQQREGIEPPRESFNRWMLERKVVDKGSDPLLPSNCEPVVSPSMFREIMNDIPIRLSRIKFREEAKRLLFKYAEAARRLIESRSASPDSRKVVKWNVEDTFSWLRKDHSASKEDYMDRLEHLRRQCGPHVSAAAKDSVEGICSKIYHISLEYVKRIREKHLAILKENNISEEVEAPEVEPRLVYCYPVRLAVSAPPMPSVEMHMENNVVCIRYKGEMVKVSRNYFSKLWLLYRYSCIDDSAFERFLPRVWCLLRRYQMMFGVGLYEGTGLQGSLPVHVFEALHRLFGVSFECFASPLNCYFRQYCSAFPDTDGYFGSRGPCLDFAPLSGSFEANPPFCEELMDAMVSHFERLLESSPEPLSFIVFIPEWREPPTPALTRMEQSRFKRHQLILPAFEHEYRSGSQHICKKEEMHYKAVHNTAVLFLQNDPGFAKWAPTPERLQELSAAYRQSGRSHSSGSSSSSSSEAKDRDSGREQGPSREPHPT

Regarding `OC[C@H]1O[C@@H](n2cnc3c(NCCCc4ccc(O)cc4)ncnc32)[C@H](O)[C@@H]1O` [Compound 16, (2R,3S,4R,5R)-2-(Hydroxymethyl)-5-(6-((3-(4-hydroxyphenyl)propyl)amino)-9H-purin-9-yl)tetrahydrofuran-3,4-diol], the “lower IC50 value, fold” value on CamA [1] is about 2.7 X. For the same compound, the “lower KD value, fold” value at CamA [2] (compared to compound 15) was about 6.5 X. In addition, the “inhibition of CcrM” value at CcrM is reported as “none of them showed any significant inhibition”. The “inhibition of Dam” value on Dam is recorded as “none of them showed any significant inhibition”. Moreover, the “inhibition of DNMT1” value on DNMT1 was “none of them showed any significant inhibition”. Also, on Dnmt3a-Dnmt3L, the “inhibition of Dnmt3a-Dnmt3L” value is “none of them showed any significant inhibition”. Besides, the “inhibition of PCIF1” value on PCIF1 is “none of them showed any significant inhibition”. Moreover, the “inhibition of MettL5-Trm112” value against MettL5-Trm112 was “none of them showed any significant inhibition”. On MettL16, the “inhibition of MettL16” value is recorded as “none of them showed any significant inhibition”. On MettL3-MettL14, the “inhibition of MettL3-MettL14” value is listed as “none of them showed any significant inhibition”. The “inhibition of DOT1L” value against DOT1L is reported as “none of them showed any significant inhibition”. The “inhibition of EZH2 complex” value at EZH2 complex is on record as “none of them showed any significant inhibition”. In addition, the “inhibition of PRMT1” value on PRMT1 was “none of them showed any significant inhibition”.
As a reminder, the Kd is the free concentration of one partner at which half of the binding sites on the other are occupied at equilibrium, for simple one-to-one binding. High values mean lower affinity, low ones higher affinity. For the compound `CC(C)(C)OC(=O)N1CCC(CCCNc2ncnc3c2ncn3[C@@H]2O[C@H](CO)[C@@H](O)[C@H]2O)CC1` [Compound 39, tert-Butyl-4-(3-((9-((2R,3R,4S,5R)-3,4-dihydroxy-5-(hydroxymethyl)tetrahydrofuran-2-yl)-9H-purin-6-yl)amino)propyl)piperidine-1-carboxylate], on CamA [1], the “higher potency, fold” value amounted to 12 ×. In addition, the equilibrium dissociation constant (Kd) at CamA [2] (KD ± SD, ITC, 25 °C) is about 200 nM. Besides, the “KD improved, fold” value at CamA [2] (from that of compound 37) was about 8 ×. Also, the “inhibition of CcrM” value against CcrM is on record as “none of them showed any significant inhibition”. The “inhibition of Dam” value on Dam was “none of them showed any significant inhibition”. In addition, on DNMT1, the “inhibition of DNMT1” value is “none of them showed any significant inhibition”. Also, the “inhibition of Dnmt3a-Dnmt3L” value against Dnmt3a-Dnmt3L was “none of them showed any significant inhibition”. Further, at PCIF1, the “inhibition of PCIF1” value is “none of them showed any significant inhibition”. In addition, the “inhibition of MettL5-Trm112” value against MettL5-Trm112 is reported as “none of them showed any significant inhibition”. At MettL16, the “inhibition of MettL16” value is recorded as “none of them showed any significant inhibition”. Moreover, the “inhibition of MettL3-MettL14” value against MettL3-MettL14 is listed as “none of them showed any significant inhibition”. The “inhibition of DOT1L” value on DOT1L is on record as “none of them showed any significant inhibition”. Besides, the “inhibition of EZH2 complex” value at EZH2 complex is “none of them showed any significant inhibition”. For the same compound, at PRMT1, the “inhibition of PRMT1” value was “none of them showed any significant inhibition”.

The values above are taken from article PMC9841527 (Journal of Medicinal Chemistry, 2022).
